Reference: US8435588B2, “High-potency sweetener composition with an anti-inflammatory agent and compositions sweetened therewith” (The Coca-Cola Company, priority 2005, dated 2013)

What was measured:
[1] = Sensory evaluation of sweetness linger by expert panel; assay type: in vivo; design: key: 0: no sweetness linger; 1: very slight sweetness linger; 2: slight sweetness linger; 3: moderate sweetness linger; 4: moderately high sweetness linger; 5: high sweetness linger; conditions: for sweetness linger: scale 0-5; for Sweetness Linger rating (defined for controls of the protocol): sucrose, 500 ppm control sample, values defined as scale anchors
Protocol: Sensory evaluation of the samples prepared in Example Set G was carried out under the following protocol, similar to that described hereinabove. In this test protocol, none of the samples were swallowed. All samples were expectorated and the mouth was rinsed with water after the tasting. Immediately upon sensing maximal sweetness, the sample was expectorated, the mouth was rinsed with water and the rate of sweetness decay (“Sweetness Linger”) was measured, where attention was focused on the sweetness 3-4 min after the water rinse. After sample tasting was complete, a salty oyster cracker was chewed followed by a water rinse, and at least 5 minutes followed before tasting the next sample. The sweetness linger was rated by a panel of experts in the sensory evaluation of foods and beverages using the following scale: 0=no sweetness linger, 1=very slight sweetness linger, 2=slight sweetness linger, 3=moderate sweetness linger, 4=moderately high sweetness linger, 5=high sweetness linger.
The “Sweetness Linger” rating for sucrose observed by this protocol is defined as 0. The Sweetness Linger of a 500 ppm of EBA control sample is defined as 5. Experimental samples were tasted by the same protocol, always allowing sufficient time between samples to ensure re-equilibration of the sensory system. Re-tasting of control samples during the course of the experiment was allowed and encouraged.
The comparison taste test was performed between two controls and addition of sweet taste improving additive on the onset and/or sweetness linger.
Sweet taste improving compositions were combined with a EBA solution to determine their effect on sweetness linger. Screening of the initial sample, or further dilutions, allowed identification of concentrations which were just above-threshold, herein defined as “near-threshold concentrations.” The near-threshold additive concentrations, a 6- to 100-fold higher additive concentration (depending on the off-taste intensity), and a mid-level additive concentration (halfway between the near-threshold and higher additive concentration) were evaluated to determine the effect on sweetness linger of a REBA solution.
Formulations of a 500 ppm EBA in a phosphoric acid solution (75%) at a pH of 2.5 with phosphoric acid or a pH of 3.1 with citric acid and potassium citrate were prepared prior to the addition of the additives at the three levels of concentration.
Sensory evaluation using the protocol described in Example Set G then was used to evaluate the sweetness linger of the REBA solutions.

[2] = Rate of dissolution of rebaudioside A polymorph and amorphous forms in H2O; assay type: physicochemical
[3] = assay type: physicochemical
Protocol: A solution of rebaudioside A (>97% pure by HPLC ) was prepared in double distilled water (12.5 gm in 50 mL, 25% concentration) by stirring the mixture at 40° C. for 5 minutes. An amorphous form of rebaudioside A was formed by immediately using the clear solution for spray drying with the Lab-Plant spray drier SD-04 instrument (Lab-Plant Ltd., West Yorkshire, U.K.). The solution was fed through the feed pump into the nozzle atomizer which atomized it into a spray of droplets with the help of a constant flow of nitrogen/air.

Row | Compound | Sweetness Linger rating (defined for controls of the protocol) [1] | Rate of dissolution in H2O at 25° C. [2] | also measured
1 | C=C1C[C@@]23CC[C@H]4[C@@](C)(CCC[C@@]4(C)C(=O)O[C@@H]4O[C@H](CO)[C@@H](O)[C@H](O)[C@H]4O)[C@@H]2CC[C@]1(O[C@@H]1O[C@H](CO)[C@@H](O)[C@H](O[C@@H]2O[C@H](CO)[C@@H](O)[C@H](O)[C@H]2O)[C@H]1O[C@@H]1O[C@H](CO)[C@@H](O)[C@H](O)[C@H]1O)C3 [REBA, rebaudioside A] | 5 | – | sweetness linger ([1]; Example Set G: 400 ppm REBA in citric acid/potassium citrate composition equivalent to diet lemon-lime beverage, sugar control 8 g in 100 ml citrate buffer): 5; sweetness linger ([1]; Example Set H: 500 ppm REBA (H41: 360 ppm) in carbon-treated water, phosphoric acid (75%) to pH 2.4-2.5, sugar control 10 g in 100 ml): 5
2 | OC[C@H]1O[C@@](CO)(O[C@H]2O[C@H](CO)[C@@H](O)[C@H](O)[C@H]2O)[C@@H](O)[C@@H]1O [sugar, sucrose, reference compound] | 0 | – | –
3 | C=C1C[C@@]23CC[C@H]4[C@@](C)(CCC[C@@]4(C)C(=O)O[C@@H]4O[C@H](CO)[C@@H](O)[C@H](O)[C@H]4O)[C@@H]2CC[C@]1(O[C@@H]1O[C@H](CO)[C@@H](O)[C@H](O[C@@H]2O[C@H](CO)[C@@H](O)[C@H](O)[C@H]2O)[C@H]1O[C@@H]1O[C@H](CO)[C@@H](O)[C@H](O)[C@H]1O)C3 [Form 3, rebaudioside A] | – | High (>30%/5 %/5 minutes | –
4 | C=C1C[C@@]23CC[C@H]4[C@@](C)(CCC[C@@]4(C)C(=O)O[C@@H]4O[C@H](CO)[C@@H](O)[C@H](O)[C@H]4O)[C@@H]2CC[C@]1(O[C@@H]1O[C@H](CO)[C@@H](O)[C@H](O[C@@H]2O[C@H](CO)[C@@H](O)[C@H](O)[C@H]2O)[C@H]1O[C@@H]1O[C@H](CO)[C@@H](O)[C@H](O)[C@H]1O)C3 [Form 2, rebaudioside A] | – | Intermediate (<30%/ %/5 minutes | –
5 | C=C1C[C@@]23CC[C@H]4[C@@](C)(CCC[C@@]4(C)C(=O)O[C@@H]4O[C@H](CO)[C@@H](O)[C@H](O)[C@H]4O)[C@@H]2CC[C@]1(O[C@@H]1O[C@H](CO)[C@@H](O)[C@H](O[C@@H]2O[C@H](CO)[C@@H](O)[C@H](O)[C@H]2O)[C@H]1O[C@@H]1O[C@H](CO)[C@@H](O)[C@H](O)[C@H]1O)C3 [Form 4, rebaudioside A] | – | High (>35.0%/ %/5 minutes | solubility in water at room temperature [3]: > 35.0%
6 | C=C1C[C@@]23CC[C@H]4[C@@](C)(CCC[C@@]4(C)C(=O)O[C@@H]4O[C@H](CO)[C@@H](O)[C@H](O)[C@H]4O)[C@@H]2CC[C@]1(O[C@@H]1O[C@H](CO)[C@@H](O)[C@H](O[C@@H]2O[C@H](CO)[C@@H](O)[C@H](O)[C@H]2O)[C@H]1O[C@@H]1O[C@H](CO)[C@@H](O)[C@H](O)[C@H]1O)C3 [Form 1, rebaudioside A] | – | Very low (<0.2%/ %/60 minutes | –
